# Test results reported in patent US6414014B1 (Bristol-Myers Squibb Company, priority 1992, dated 2002).
# What was measured:
# [1] = Hypersensitivity reactions (HSR) in the randomized taxol study; type: in vivo, patients
# Experimental: Patients with platinum pretreated recurrent ovarian cancer were randomized to a 135 or 175 mg/m^2 dose arm, administered as a 3-hour or 24-hour IV infusion, which was repeated every three weeks. Responses were evaluated every two cycles.
# [2] = tested on: drug-refractory ovarian cancer; settings: in vivo; cited from earlier work
# [3] = Peripheral neuropathy symptoms (PNS) in the randomized taxol study; type: in vivo, patients
# Experimental: A nurse remained with each patient for the first hour of each infusion. Temperature, pulse, blood pressure, and respiration were taken preinfusion, every 15 minutes for the first hour, every thirty minutes for the next 2 hours, hourly for the next 4 hours, and every other hour until the end of the infusion (for patients receiving the 24-hour infusion). Other observations were also documents, such as rash/redness of the skin, hives, vomiting, nausea, and any other symptoms including neuropathy and skin rashes.
# 80 of 157 patients (51%) experienced some sign of symptom of peripheral neurotoxicity. The incidents in the high dose arms was 66% (49/74), while the incidents in the low dose arms was 37% (31/83). The incidents of peripheral neuropathy in the long-term (24-hour) infusion was 48% (43/89), while the incidents of peripheral neuropathy in the short-term infusion arms was […] (37/68).
# [4] = 6-hour IV infusion every 21 days without premedication; cited from earlier work
# [5] = TOTAL, all four arms, 528 courses analyzed
# [6] = arm 135/3 (mg/m^2/infusion hours), 132 courses analyzed
# [7] = arm 135/24 (mg/m^2/infusion hours), 141 courses analyzed
# [8] = arm 175/3 (mg/m^2/infusion hours), 92 courses analyzed
# [9] = arm 175/4 (mg/m^2/infusion hours), 163 courses analyzed
# [10] = arm 135/3 (mg/m^2/infusion hours), n = 39
# [11] = arm 135/24 (mg/m^2/infusion hours), n = 44
# [12] = arm 175/3 (mg/m^2/infusion hours), n = 29
# [13] = arm 175/4 (mg/m^2/infusion hours), n = 45
smiles,measurement,setting,value
CC(=O)O[C@H]1C(=O)[C@@]2(C)[C@H]([C@H](OC(=O)c3ccccc3)[C@]3(O)C[C@H](OC(=O)[C@H](O)[C@@H](NC(=O)c4ccccc4)c4ccccc4)C(C)=C1C3(C)C)[C@]1(OC(C)=O)CO[C@@H]1C[C@@H]2O [taxol],hypersensitivity reactions which required acute therapeutic intervention,[1]; 2 of 157 patients,1%
same,severe hypersensitivity reaction in one patient,"[1]; 24-hour arm, course 2 at dose reduced by 20%, less than 1 ml infused",tachychardia and shortness of breath
same,patients exhibiting some type of hypersensitivity reaction,"[1]; 57/157, all arms",35%
same,Patients reporting a HSR,"[1]; TOTAL, all four arms, 157 patients analyzed",57 (36) n (%)
same,Courses with a reported HSR,[1]; [5],136 (26) n (%)
same,Type of HSR Per Course: Arrhytheria,[1]; [5],1 n (%)
same,Type of HSR Per Course: Chest pain,[1]; [5],1 n (%)
same,Type of HSR Per Course: Dyspriea,[1]; [5],5 n (%)
same,Type of HSR Per Course: Ederma face,[1]; [5],2 n (%)
same,Type of HSR Per Course: Eye disorder,[1]; [5],2 n (%)
same,Type of HSR Per Course: Flushing,[1]; [5],103 n (%)
same,Type of HSR Per Course: Headache,[1]; [5],1 n (%)
same,Type of HSR Per Course: Hypertension,[1]; [5],1 n (%)
same,Type of HSR Per Course: Hypotension,[1]; [5],13 n (%)
same,Type of HSR Per Course: Nausea/Vomiting,[1]; [5],1 n (%)
same,Type of HSR Per Course: Pruritis,[1]; [5],2 n (%)
same,Type of HSR Per Course: Rash,[1]; [5],21 n (%)
same,Type of HSR Per Course: Tachychardia,[1]; [5],1 n (%)
same,Patients reporting a HSR,"[1]; arm 135/3 (mg/m^2/infusion hours), 39 patients analyzed",11 (28) n (%)
same,Courses with a reported HSR,[1]; [6],23 (17) n (%)
same,Type of HSR Per Course: Dyspriea,[1]; [6],2 n (%)
same,Type of HSR Per Course: Eye disorder,[1]; [6],2 n (%)
same,Type of HSR Per Course: Flushing,[1]; [6],15 n (%)
same,Type of HSR Per Course: Hypotension,[1]; [6],1 n (%)
same,Type of HSR Per Course: Pruritis,[1]; [6],2 n (%)
same,Type of HSR Per Course: Rash,[1]; [6],6 n (%)
same,Patients reporting a HSR,"[1]; arm 135/24 (mg/m^2/infusion hours), 44 patients analyzed",18 (41) n (%)
same,Courses with a reported HSR,[1]; [7],44 (31) n (%)
same,Type of HSR Per Course: Chest pain,[1]; [7],1 n (%)
same,Type of HSR Per Course: Dyspriea,[1]; [7],3 n (%)
same,Type of HSR Per Course: Flushing,[1]; [7],40 n (%)
same,Type of HSR Per Course: Headache,[1]; [7],1 n (%)
same,Type of HSR Per Course: Hypotension,[1]; [7],1 n (%)
same,Type of HSR Per Course: Nausea/Vomiting,[1]; [7],1 n (%)
same,Type of HSR Per Course: Rash,[1]; [7],6 n (%)
same,Type of HSR Per Course: Tachychardia,[1]; [7],1 n (%)
same,Patients reporting a HSR,"[1]; arm 175/3 (mg/m^2/infusion hours), 29 patients analyzed",12 (41) n (%)
same,Courses with a reported HSR,[1]; [8],23 (25) n (%)
same,Type of HSR Per Course: Ederma face,[1]; [8],1 n (%)
same,Type of HSR Per Course: Flushing,[1]; [8],16 n (%)
same,Type of HSR Per Course: Hypotension,[1]; [8],1 n (%)
same,Type of HSR Per Course: Rash,[1]; [8],6 n (%)
same,Patients reporting a HSR,"[1]; arm 175/4 (mg/m^2/infusion hours), 45 patients analyzed",6 (36) n (%)
same,Courses with a reported HSR,[1]; [9],46 (28) n (%)
same,Type of HSR Per Course: Arrhytheria,[1]; [9],1 n (%)
same,Type of HSR Per Course: Ederma face,[1]; [9],1 n (%)
same,Type of HSR Per Course: Flushing,[1]; [9],32 n (%)
same,Type of HSR Per Course: Hypertension,[1]; [9],1 n (%)
same,Type of HSR Per Course: Hypotension,[1]; [9],10 n (%)
same,Type of HSR Per Course: Rash,[1]; [9],3 n (%)
same,activity against drug-refractory ovarian cancer,[2],active agent
same,patients asymptomatic prior to taxol who developed some peripheral neuropathy symptoms,[3]; 44 of 118 patients,37%
same,patients with some sign or symptom of peripheral neurotoxicity,"[3]; 80 of 157, all arms",51%
same,First Occurence/Worsening of PNS By Cumulative Dose of Taxol: 201-400 mg/m^2,"[3]; TOTAL, all four arms, n = 157",22 n (%)
same,First Occurence/Worsening of PNS By Cumulative Dose of Taxol: 401-600 mg/m^2,"[3]; TOTAL, all four arms, n = 157",4 n (%)
same,First Occurence/Worsening of PNS By Cumulative Dose of Taxol: >600 mg/m^2,"[3]; TOTAL, all four arms, n = 157",5 n (%)
same,First Occurence/Worsening of PNS By Cumulative Dose of Taxol: ≦200 mg/m^2,"[3]; TOTAL, all four arms, n = 157",23 n (%)
same,Number of Patients Who Developed or Worsened PNS,"[3]; TOTAL, all four arms, n = 157",54 (34) n (%)
same,First Occurence/Worsening of PNS By Courses: Course 1,[3]; [10],4 n (%)
same,First Occurence/Worsening of PNS By Courses: Course 3,[3]; [10],1 n (%)
same,First Occurence/Worsening of PNS By Courses: Course 4 and more,[3]; [10],3 n (%)
same,First Occurence/Worsening of PNS By Cumulative Dose of Taxol: 201-400 mg/m^2,[3]; [10],1 n (%)
same,First Occurence/Worsening of PNS By Cumulative Dose of Taxol: 401-600 mg/m^2,[3]; [10],2 n (%)
same,First Occurence/Worsening of PNS By Cumulative Dose of Taxol: >600 mg/m^2,[3]; [10],2 n (%)
same,First Occurence/Worsening of PNS By Cumulative Dose of Taxol: ≦200 mg/m^2,[3]; [10],4 n (%)
same,Number of Patients Who Developed or Worsened PNS,[3]; [10],8 (21) n (%)
same,First Occurence/Worsening of PNS By Courses: Course 1,[3]; [11],3 n (%)
same,First Occurence/Worsening of PNS By Courses: Course 2,[3]; [11],2 n (%)
same,First Occurence/Worsening of PNS By Courses: Course 3,[3]; [11],1 n (%)
same,First Occurence/Worsening of PNS By Courses: Course 4 and more,[3]; [11],1 n (%)
same,First Occurence/Worsening of PNS By Cumulative Dose of Taxol: 201-400 mg/m^2,[3]; [11],3 n (%)
same,First Occurence/Worsening of PNS By Cumulative Dose of Taxol: 401-600 mg/m^2,[3]; [11],1 n (%)
same,First Occurence/Worsening of PNS By Cumulative Dose of Taxol: >600 mg/m^2,[3]; [11],1 n (%)
same,First Occurence/Worsening of PNS By Cumulative Dose of Taxol: ≦200 mg/m^2,[3]; [11],3 n (%)
same,Number of Patients Who Developed or Worsened PNS,[3]; [11],7 (16) n (%)
same,First Occurence/Worsening of PNS By Courses: Course 1,[3]; [12],7 n (%)
same,First Occurence/Worsening of PNS By Courses: Course 2,[3]; [12],9 n (%)
same,First Occurence/Worsening of PNS By Courses: Course 3,[3]; [12],1 n (%)
same,First Occurence/Worsening of PNS By Courses: Course 4 and more,[3]; [12],1 n (%)
same,First Occurence/Worsening of PNS By Cumulative Dose of Taxol: 201-400 mg/m^2,[3]; [12],9 n (%)
same,First Occurence/Worsening of PNS By Cumulative Dose of Taxol: 401-600 mg/m^2,[3]; [12],1 n (%)
same,First Occurence/Worsening of PNS By Cumulative Dose of Taxol: >600 mg/m^2,[3]; [12],1 n (%)
same,First Occurence/Worsening of PNS By Cumulative Dose of Taxol: ≦200 mg/m^2,[3]; [12],7 n (%)
same,Number of Patients Who Developed or Worsened PNS,[3]; [12],18 (62) n (%)
same,First Occurence/Worsening of PNS By Courses: Course 1,[3]; [13],9 n (%)
same,First Occurence/Worsening of PNS By Courses: Course 2,[3]; [13],8 n (%)
same,First Occurence/Worsening of PNS By Courses: Course 3,[3]; [13],1 n (%)
same,First Occurence/Worsening of PNS By Courses: Course 4 and more,[3]; [13],2 n (%)
same,First Occurence/Worsening of PNS By Cumulative Dose of Taxol: 201-400 mg/m^2,[3]; [13],8 n (%)
same,First Occurence/Worsening of PNS By Cumulative Dose of Taxol: 401-600 mg/m^2,[3]; [13],2 n (%)
same,First Occurence/Worsening of PNS By Cumulative Dose of Taxol: >600 mg/m^2,[3]; [13],1 n (%)
same,First Occurence/Worsening of PNS By Cumulative Dose of Taxol: ≦200 mg/m^2,[3]; [13],9 n (%)
same,Number of Patients Who Developed or Worsened PNS,[3]; [13],20 (44) n (%)
same,incidence of peripheral neurotoxicity,"[3]; high dose arms, 49/74",66%
same,"peripheral neuropathy symptoms (PNS), about 135 mg/m^2 rather than about 175 mg/m^2",[3]; in vivo,reduced
same,incidence of peripheral neuropathy,"[3]; long-term (24-hour) infusion, 43/89",48%
same,incidence of peripheral neurotoxicity,"[3]; low dose arms, 31/83",37%
same,incidence of peripheral neuropathy,"[3]; short-term infusion arms, 37/68",50%
same,maximum tolerated dose,[4],275 mg/m^2
